Here are results for seven compounds from US20260232682A1, “GSPT1 DEGRADER COMPOUNDS” (Captor Therapeutics S.A., priority 2023, published 2026).

The structures appear in SMILES notation.

Data set [1] can be described thus: Chemical stability in MV-4-11 medium. As to conditions: 37° C., concentration 10 μM.
Description: Next, 500 μL of each solution was transferred to the 96-deep-well plate. Three replicates for each compound were performed. Plate was afterwards incubated at 37° C. with shaking (220 rpm). 50 μL of sample were withdrawn for the each timepoint (0, 1, 3, 6, 24, 48, 72, and 168 hours) and immediately mixed with 50 μL of acetonitrile. Next, samples were centrifuged at 3900 rpm, 10° C. for 20 minutes. 40 μL of supernatant was diluted with 120 μL of acetonitrile containing internal standard (IS) (10 μM), mixed, and analyzed by LC-MS/MS.
Thermo Fisher Scientific Altis+ coupled with a Vanquish system were used for UHPLC-MS/MS analysis. Analytes were separated on a Kinetex XB-C18 2.6 μm, 50×2.1 mm column, using gradient of water with 0.1% (v/v) formic acid (solvent A) and acetonitrile with 0.1% (v/v) formic acid (solvent B): 0.0 min 5% B, 0.5 min 5% B, 1.0 min 70% B, 3.0 min 95% B, 3.5 min 95% B, 3.7 min 5% B, 5 min 5% B. The mobile phase flow rate was set to 0.3 mL/min and the column was kept in 40° C. 1 μL of samples were injected. The MS/MS analysis was performed using SRM mode in positive ionization. Source parameters were set as follow: Ion Source Type H-ESI, Spray Voltage 3800 V, Sheath Gas 50 Arb, Aux Gas 10 Arb, Sweep Gas 1 Arb, Ion Transfer Tube Temp 325° C., Vaporizer Temp 350° C., Collision Gas Pressure 1.5 mTorr, Q1/Q3 Resolution (FWHM) 0.7. Three transitions were monitored for each analyte and for the internal standard:
Quantitation was based on the peak area ratio between the test compound and IS. The amount of compound remaining in the sample was calculated as follow:
The slope of logarithmic curve of percent remaining versus time has been used for calculation of half-life (t_half). First, the elimination constant (k) was calculated using the equation:
Next, half-life (t_half) was calculated using equation:
For another data set, the system named is Hep3B, Kelly, KG-1. Nature of the data set: Growth inhibition of cancer cell lines (summary statement). The class given is cell-based. To be noted: hepatocellular carcinoma (Hep3B), neuroblastoma (Kelly), leukemia (KG-1).
Data set [2] addresses T1, [SALL4 ZF2]-[compound]-[CRBN/DDB1] ternary complex (Homo sapiens, UniProt Q96SW2+Q9UJQ4).
T1 construct: SALL4 ZF2
Kind of data set: AlphaLISA assay for off-target recruitment detection, SALL4 ZF2. It counts as binding. To be noted: 1 μM compound; normalized to Lenalidomide; read-out: Normalized ternary complex response, SALL4 ZF2. The protocol:
(§1) The ability of the molecular glue compounds of the invention to mediate the proximity of CRBN with its known neo-substrates (shown in Table 3) was assessed using AlphaLISA to detect the formation of a [neo-substrate]-[compound of formula (I)]-[CRBN/DDB1] ternary complex.
(§2) Two types of protein solution were prepared: • neo-substrate, 40 μg/ml AlphaScreen Donor Beads (Table 3) in PBS (10 mM phosphate buffer, 137 mM NaCL, 2.7 mM KCl, pH 7.4) buffer supplemented with Tween-20 (Table 3) and 1 mM DTT, • 200 nM 6×His-CRBN/DDB1, 40 μg/ml AlphaLISA Anti-6×His Acceptor beads in PBS buffer with Tween-20 (Table 3) and 1 mM DTT.
(§3) The prepared solutions were incubated at room temperature for 30 min and then the solution containing the donor beads was mixed with the solution containing the acceptor beads.
(§4) The tested compounds were dispensed onto a white 384-well AlphaPlate 384 SW. DMSO was backfilled to all wells, resulting in a final DMSO content of 2%. Wells containing only DMSO served as background. Next, 10 μl of solution with donor and acceptor beads was added to the wells.
(§5) The plate was sealed with transparent film and shaken using a VibroTurbulator for 60 sec at room temperature, level 3. The plate was then spun down shortly (10 sec, 1000 rcf, room temperature) and incubated at 25° C. for 30 min.
(§6) The read-out was performed with PerkinElmer Enspire Multimode Plate Reader (method for AlphaLISA 384-well low volume, Filterset: λexc=680 nm, λem=615 nm).
(§7) The results were analyzed as follows: • 1) an average of luminescence for background signal was calculated and used as a negative control; • 2) an average of the maximum measured luminescence for reference compound (Table 3) was calculated and used as an internal positive control; • 3) raw luminescence values were normalized against positive and negative controls; • 4) Normalized responses to reference molecular glue were determined.

Data set [3] concerns the target T2, [IKZF1 ZF2]-[compound]-[CRBN/DDB1] ternary complex (Homo sapiens, UniProt Q13422+Q96SW2).
T2 construct: IKZF1 ZF2
Kind of data set: AlphaLISA assay for off-target recruitment detection, IKZF1 ZF2. It counts as binding. To be noted: 1 μM compound; normalized to Lenalidomide; read-out: Normalized ternary complex response, IKZF1 ZF2. How it is done: as §1, §2, §3, §4, §5, §6, §7
(In general: Bead proximity is the source of the signal in Alpha formats.)

The target in data set [4] is T3, [GSPT1]-[compound of formula (I)]-[CRBN/DDB1] complex (Homo sapiens, UniProt P15170+Q96SW2). Nature of the data set: AlphaLISA ternary complex formation assay (GSPT1). The class given is binding. To be noted: 0.5 h; 1 μM compound; normalized to reference compound CC-885; read-out: Normalized AlphaLISA ternary complex average signal at 1 μM molecule. The protocol:
The effect of the molecular glue compounds of the invention on the formation of a ternary complex composed of [GSPT1]-[compound of formula (I)]-[CRBN/DDB1] was investigated with two methods: AlphaLISA dose response assay or HTRF ternary complex assay.
Two types of protein solution were prepared: • 200 nM biotinylated GSPT1 (Table 3), 40 μg/ml AlphaScreen Streptavidin-coated Donor Beads in HBS (10 mM HEPES, 150 mM NaCL, pH 7.4) buffer with 0.1% Tween-20 and 1 mM DTT, • 200 nM 6×His-CRBN/DDB1, 40 μg/ml AlphaLISA Anti-6×His Acceptor beads in HBS buffer with 0.1% Tween-20 and 1 mM DTT.
as §3, §4, §5, §6
The results were analyzed as follows: • 1) an average of luminescence for background signal was calculated and used as a negative control; • 2) average of the maximum measured luminescence for reference compound (structure shown in Table 3 below) was calculated and used as an internal positive control; • 3) raw luminescence values were normalized against positive and negative controls; • 4) Normalized responses to positive control were determined.

The target of data set [5] is CRBN/DDB1 protein complex (Homo sapiens, UniProt Q96SW2). Nature of the data set: CRBN displacement TR-FRET assay. As to conditions: Thalidomide-Red tracer, 6×His-CRBN/DDB1; read-out: CRBN binding Ki. How it is done:
CRBN/DDB1 protein complex was mixed with Thalidomide-Red and a compound to be tested (the “test compound”). The test solution contained PPI Europium detection buffer, 1 mM DTT, 6.8 nM Thalidomide-Red (the tracer), 5 nM 6×His-CRBN/DDB1 protein, 0.5 nM Anti-6× His-Eu cryptate, 1% DMSO. The test solution was added to a 384-well assay plate.
The plate was spun-down (1 min, 1000 rpm, 22° C.) and then shaken using a VibroTurbulator for 30 sec at room temperature (20-25° C.), with the frequency set to level 10. The assay plate with protein and the tracer was incubated for 180 min at room temperature (20-25° C.) prior to read-out with a plate reader. The read-out was performed with plate reader (Pherastar, BMG Labtech) in time resolved fluorescence mode. Filter settings: TR 337 665 620.
The CRBN displacement TR-FRET experiment was carried out with various concentrations of the test compounds in order to measure Ki values.
The Ki values of competitive inhibitors were calculated using the equation based on the IC50 values of relationship between compound concentration and measured […], the Kd value of the Thalidomide-Red and CRBN/DDB1 complex, and the concentrations of the protein and the tracer in the displacement assay (as described by Cheng and Prusoff, Biochem Pharmacol 1973; 22:3099-3108).
For orientation: TR-FRET usually uses a lanthanide donor and a delayed reading to cut background.

The target in data set [6] is T4, [IKZF2 ZF2]-[compound]-[CRBN/DDB1] ternary complex (Homo sapiens, UniProt Q96SW2+Q9UKS7).
T4 construct: IKZF2 ZF2
T4 sequence (Q9UKS7 140-162 limits assumed): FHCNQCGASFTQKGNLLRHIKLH
T4 sequence (Q96SW2 whole entry): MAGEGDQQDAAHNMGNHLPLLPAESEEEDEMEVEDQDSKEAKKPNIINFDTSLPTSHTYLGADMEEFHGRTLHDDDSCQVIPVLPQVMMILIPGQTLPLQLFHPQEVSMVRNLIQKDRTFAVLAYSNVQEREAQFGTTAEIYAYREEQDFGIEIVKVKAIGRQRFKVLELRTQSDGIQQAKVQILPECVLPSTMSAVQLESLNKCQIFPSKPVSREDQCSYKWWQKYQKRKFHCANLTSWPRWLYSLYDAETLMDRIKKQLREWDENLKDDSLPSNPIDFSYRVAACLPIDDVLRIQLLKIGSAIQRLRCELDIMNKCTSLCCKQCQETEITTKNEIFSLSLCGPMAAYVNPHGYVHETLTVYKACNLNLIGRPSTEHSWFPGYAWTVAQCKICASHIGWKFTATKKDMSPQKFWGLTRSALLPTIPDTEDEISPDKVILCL
T4 sequence (Q16531 whole entry partner): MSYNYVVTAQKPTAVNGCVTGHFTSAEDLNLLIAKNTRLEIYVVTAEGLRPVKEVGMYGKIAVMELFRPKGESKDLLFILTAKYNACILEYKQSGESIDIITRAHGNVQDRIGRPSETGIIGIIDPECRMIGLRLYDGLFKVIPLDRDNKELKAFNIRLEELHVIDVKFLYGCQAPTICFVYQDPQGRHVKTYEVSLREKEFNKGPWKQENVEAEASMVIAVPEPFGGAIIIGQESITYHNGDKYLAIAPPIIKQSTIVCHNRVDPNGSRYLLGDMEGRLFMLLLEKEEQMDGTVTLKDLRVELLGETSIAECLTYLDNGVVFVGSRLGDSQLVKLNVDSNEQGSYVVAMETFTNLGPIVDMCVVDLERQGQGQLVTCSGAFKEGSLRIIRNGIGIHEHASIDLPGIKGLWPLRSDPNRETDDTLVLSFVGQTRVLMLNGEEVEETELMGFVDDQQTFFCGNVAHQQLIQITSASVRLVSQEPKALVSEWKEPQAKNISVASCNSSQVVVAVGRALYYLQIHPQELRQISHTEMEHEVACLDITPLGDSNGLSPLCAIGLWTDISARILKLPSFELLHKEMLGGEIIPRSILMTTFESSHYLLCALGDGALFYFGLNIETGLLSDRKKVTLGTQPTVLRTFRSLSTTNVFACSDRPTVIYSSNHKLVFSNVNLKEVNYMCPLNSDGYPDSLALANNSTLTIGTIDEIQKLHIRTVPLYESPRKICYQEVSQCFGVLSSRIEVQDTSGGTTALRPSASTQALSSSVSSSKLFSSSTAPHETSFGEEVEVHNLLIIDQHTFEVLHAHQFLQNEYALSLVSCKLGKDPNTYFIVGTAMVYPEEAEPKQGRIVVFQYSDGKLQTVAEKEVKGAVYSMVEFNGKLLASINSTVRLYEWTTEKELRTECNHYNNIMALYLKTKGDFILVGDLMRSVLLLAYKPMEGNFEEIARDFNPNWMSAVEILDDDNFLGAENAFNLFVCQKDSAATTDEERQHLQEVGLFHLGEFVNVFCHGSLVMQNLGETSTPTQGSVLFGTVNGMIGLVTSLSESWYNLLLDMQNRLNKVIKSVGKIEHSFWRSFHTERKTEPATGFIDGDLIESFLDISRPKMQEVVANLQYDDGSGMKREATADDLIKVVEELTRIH
Nature of the data set: AlphaLISA assay for off-target recruitment detection, IKZF2 ZF2. The class given is binding. To be noted: 1 μM compound; normalized to Helios modulator; read-out: Normalized ternary complex response, IKZF2 ZF2. How it is done:
as §1, §2, §3, §4, §5, §6, §7

In data set [7] the target is T3, [GSPT1]-[compound of formula (I)]-[CRBN/DDB1] complex. Nature of the data set: HTRF ternary complex assay (GSPT1). To be noted: read-out: HTRF ternary complex Average pEC50 by molecule (converted). The class given is binding. The protocol:
The effect of the molecular glue compounds of the invention on the formation of a ternary complex composed of [GSPT1]-[compound of formula (I)]-[CRBN/DDB1] was investigated.
Mix solution of proteins and reagents was prepared: • 48 nM GSPT1, 52.8 nM 6×His-CRBN/DDB1, 3 nM of Streptavidin-Eu cryptate ([…]) and 6.67 nM of Anti-6×his-d2 ([…]) was prepared in PPI Europium detection buffer (purchased from Cisbio) with 1 mM DTT.
The tested compounds in dose-response were dispensed onto a white 384-well low volume plate (Greiner, 784075). DMSO was backfilled to all wells, resulting in a final DMSO content of 0.5%. Wells containing only DMSO served as background.
The plate was sealed with transparent film and shaken using a VibroTurbulator for 60 sec at level 3.
The plate was then spun down shortly (10 sec, 1000 rcf) and incubated at 25° C. for 180 min.
The read-out was performed with plate reader (Pherastar, BMG Labtech) in time resolved fluorescence mode. Filter settings: TR 337 665 620.
The results were analyzed as follows: • 1) an average of fluorescence for background signal was calculated and used as a negative control; • 2) raw fluorescence values for tested compounds were normalized against negative controls; • 3) saturation curve was fitted to specific binding with Hill slope model; • 4) EC50 and pEC50 values were determined.

The target of data set [8] is [CK1α]-[compound]-[CRBN/DDB1] ternary complex (Homo sapiens, UniProt P48729+Q96SW2). Nature of the data set: AlphaLISA assay for off-target recruitment detection, CK1α. It counts as binding. As to conditions: 1 μM compound; normalized to FPFT-2216; read-out: Normalized ternary complex response, CK1α. The protocol: as §1, §2, §3, §4, §5, §6, §7
Sequence of [CK1α]-[compound]-[CRBN/DDB1] ternary complex (P48729 whole entry): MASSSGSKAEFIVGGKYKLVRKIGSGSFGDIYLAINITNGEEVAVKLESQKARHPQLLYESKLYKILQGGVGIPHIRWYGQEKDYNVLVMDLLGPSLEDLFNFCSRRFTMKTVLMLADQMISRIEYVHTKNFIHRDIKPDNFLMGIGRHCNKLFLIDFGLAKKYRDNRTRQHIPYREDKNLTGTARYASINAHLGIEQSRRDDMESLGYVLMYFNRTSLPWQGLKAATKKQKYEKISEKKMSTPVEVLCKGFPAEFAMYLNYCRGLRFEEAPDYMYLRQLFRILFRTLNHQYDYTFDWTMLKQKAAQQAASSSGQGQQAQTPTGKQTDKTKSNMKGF
Sequence of [CK1α]-[compound]-[CRBN/DDB1] ternary complex (Q96SW2 whole entry): as the sequence (Q96SW2 whole entry) above
Sequence of [CK1α]-[compound]-[CRBN/DDB1] ternary complex (Q16531 whole entry partner): as the sequence (Q16531 whole entry partner) above

T2 sequence (Q13422 145-167 limits assumed): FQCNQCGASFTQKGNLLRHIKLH
T2 sequence (Q96SW2 whole entry): as the sequence (Q96SW2 whole entry) above
T2 sequence (Q16531 whole entry partner): as the sequence (Q16531 whole entry partner) above
T1 sequence (Q9UJQ4 410-432 limits assumed): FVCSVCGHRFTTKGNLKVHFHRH
T1 sequence (Q96SW2 whole entry): as the sequence (Q96SW2 whole entry) above
T1 sequence (Q16531 whole entry partner): as the sequence (Q16531 whole entry partner) above
T3 sequence (P15170 whole entry): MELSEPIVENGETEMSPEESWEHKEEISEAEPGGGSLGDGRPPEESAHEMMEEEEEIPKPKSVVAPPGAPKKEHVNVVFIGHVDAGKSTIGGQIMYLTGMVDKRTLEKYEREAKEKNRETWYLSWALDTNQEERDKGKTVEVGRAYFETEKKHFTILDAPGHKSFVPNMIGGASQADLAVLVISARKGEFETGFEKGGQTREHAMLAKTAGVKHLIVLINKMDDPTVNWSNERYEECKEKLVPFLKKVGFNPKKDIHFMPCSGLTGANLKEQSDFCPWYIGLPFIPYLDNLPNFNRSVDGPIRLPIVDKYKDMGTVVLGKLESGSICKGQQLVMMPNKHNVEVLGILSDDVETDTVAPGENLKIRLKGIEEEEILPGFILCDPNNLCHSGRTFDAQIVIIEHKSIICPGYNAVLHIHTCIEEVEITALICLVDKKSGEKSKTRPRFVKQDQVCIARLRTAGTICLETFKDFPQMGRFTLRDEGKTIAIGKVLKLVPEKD
T3 sequence (Q96SW2 whole entry): as the sequence (Q96SW2 whole entry) above
T3 sequence (Q16531 whole entry partner): as the sequence (Q16531 whole entry partner) above
Sequence of CRBN/DDB1 protein complex (Q96SW2 whole entry, species assumed): as the sequence (Q96SW2 whole entry) above
Sequence of CRBN/DDB1 protein complex (Q16531 whole entry partner, species assumed): as the sequence (Q16531 whole entry partner) above

Regarding `Nc1cccc2c1C(=O)N(C1CCC(=O)NC1=O)C2=O` (stereo not drawn) [pomalidomide], in data set [1], the “% remaining at 24 hrs” value is “e (e<5%)” and the “t_half [hours]” value is “D (D<5 hrs)”. The “inhibition of growth of cancer types” value in the data set on Hep3B, Kelly, KG-1 is “inactive”.

As to `Cc1nc2cccc(N)c2c(=O)n1C1CCC(=O)NC1=O` (stereo not drawn) [avadomide], in data set [1], the “% remaining at 24 hrs” value is reported as “d (5%≤d<10%)” and the “t_half [hours]” value is reported as “C (5 hrs≤C<10 hrs)”.

With `Nc1cccc2c1CN(C1CCC(=O)NC1=O)C2=O` (stereo not drawn) [lenalidomide], in [1], the “% remaining at 24 hrs” value is given as “e (e<5%)” and the “t_half [hours]” value was “D (D<5 hrs)”. For the same compound, in the data set with Hep3B, Kelly, KG-1, the “inhibition of growth of cancer types” value was “inactive”.

As for `Cc1ccc(NC(=O)C(C)Oc2ccc3cc(C4CCC(=O)NC4=O)c(C)nc3c2)cc1Cl` (stereo not drawn) [Compound 34, N-(3-chloro-4-methylphenyl)-2-((3-(2,6-dioxopiperidin-3-yl)-2-methylquinolin-7-yl)oxy)propenamide], the activation at 1 µM in [2], in [3], in data set [4], in [6] and in data set [8] was under 10% throughout. In addition, the Ki in data set [5] fell in the range of 500 to 1000 nM. Further, the EC50 in [7] is over 3160 nM.

For `O=C1CCC(N2Cc3cc(CNC(=O)C(F)(F)c4ccc(Cl)cc4)ccc3C2=O)C(=O)N1` (stereo not drawn) [eragidomide], in data set [1], the “t_half [hours]” value was “D (D<5 hrs)”.

With `Cc1nc2ccc(CNC(=O)NC3CCCCC3)cc2cc1N1CCC(=O)NC1=O` [Compound 52, 1-cyclohexyl-3-((3-(2,4-dioxotetrahydropyrimidin-1(2H)-yl)-2-methylquinolin-6-yl)methyl)urea], the activation at 1 µM in data set [2] is at least 50%; in data set [3], 25 to 50%; in data set [4] it was 10 to 50%; in data set [6] it was 10 to 25%; in data set [8], under 10%. In data set [5], the inhibitory constant (Ki) was over 1000 nM. The EC50 in data set [7] is 316 to 3160 nM.

As for `Cc1nc2ccc(CNC(=O)C(=O)c3ccc(C(C)(C)C)cc3)cc2cc1C1CCC(=O)NC1=O` (stereo not drawn) [Compound 1, 2-(4-(tert-butyl)phenyl)-N-((3-(2,6-dioxopiperidin-3-yl)-2-methylquinolin-6-yl)methyl)-2-oxoacetamide], the activation at 1 µM was at least 50% in data set [2]; 25 to 50% in data set [3]; over 50% in [4]; 10 to 25% in [6]; under 10% in [8]. Besides, the Ki in data set [5] is under 500 nM. Besides, in data set [7], the EC50 was under 316 nM.

The Ki is the dissociation constant of the complex between target and ligand, obtained from inhibition or displacement.
